{
  "source": "patent US20190008828A1",
  "about": "“METHODS FOR INHIBITING HUMAN IMMUNODEFICIENCY VIRUS (HIV) RELEASE FROM INFECTED CELLS” (priority 2015, published 2019)",
  "molecules": {"B1": {"name": "soluble human L-selectin (sCD62L) (receptor, UniProt P14151 39-332, looked up)", "chain": "WTYHYSEKPMNWQRARRFCRDNYTDLVAIQNKAEIEYLEKTLPFSRSYYWIGIRKIGGIWTWVGTNKSLTEEAENWGDGEPNNKKNKEDCVEIYIKRNKDAGKWNDDACHKLKAALCYTASCQPWSCSGHGECVEIINNYTCNCDVGYYGPQCQFVIQCEPLEAPELGTMDCTHPLGNFSFSSQCAFSCSEGTNLTGIEETTCGPFGNWSSPEPTCQVIQCEPLSAPDLGIMNCSHPLASFSFTSACTFICSEGTELIGKKKTICESSGIWSNPSPICQKLDKSFSMIKEGDYN", "notes": "also called soluble CD62L; recombinant CD62L"}},
  "key": {"HIV-1BaL [1]": {"tested_on": "HIV-1BaL", "assay": "HIV-1BaL infection of activated CD8-depleted PBMCs", "assay_type": "cell-based", "settings": "for reduction of HIV-1BaL infection of CD4+ T cells: 5 μM"}, "HIV-1BaL [2]": {"tested_on": "HIV-1BaL", "assay": "Cell-cell transfer TZM-BL assay", "settings": "TZM-BL co-incubated with HIV-1BaL-infected activated CD8-depleted PBMCs", "protocol": "For the cell-cell transfer assay, TZM-BL and TZM-62L cells were seeded in a 96-well, flat-bottom plate at 3,000 cells/well three days before the assay. Three days post infection with HIV-1BaL, activated CD8-depleted PBMCs with and without the presence of BB-94 were added to the wells at the concentration of 80×10^3, 40×10^3, 20×10^3, 10×10^3, and 5×10^3 cells/well with the volume of each well equalized using the CD8− PBMC media. Additional BB-94 was added to both the cells infected in the presence of BB-94 and a sample of cells that only received BB-94 treatment for the cell-cell transfer assay. All conditions were prepared in triplicate. The cell mixtures were incubated at 37° C. for three days, followed by lysis and measurement of the subsequent luciferase expression as per the manufacturer's instructions."}, "HIV-1 viral release": {"tested_on": "HIV-1 viral release", "assay": "HIV-1 release assay, CD4+ T cells of HIV-1-infected individuals", "assay_type": "cell-based", "experimental": "PBMCs were obtained by leukapheresis and ficoll-hypaque centrifugation. CD4+ T cells were isolated using a cell separation system (StemCell Technologies). Cells were cultured with medium alone or with plate-bound anti-CD3 and soluble anti-CD28 antibody in the absence (DMSO) or presence of BB-94 in duplicate for 48 hours. The copy number of virion-associated HIV RNA in the above cell culture supernatants was determined using the […]-1 Test, Version 2.0 (Roche Diagnostics). The limit of detection for this system is 20 copies/ml."}, "CD62L shedding": {"tested_on": "CD62L shedding", "assay": "CD62L shedding on activated CD8-depleted PBMCs", "assay_type": "cell-based, human", "settings": "100 μM concentration; supernatant CD62L by ELISA"}, "[3]": {"target": "T1, CD62L-Fc binding to immobilized gp120 (Homo sapiens, UniProt P14151)", "T1 construct": "Soluble gp120 and CD62L ELISA; Fc (IgG); purchased R&D Systems, Inc", "T1 sequence (P14151 39-332 limits assumed)": "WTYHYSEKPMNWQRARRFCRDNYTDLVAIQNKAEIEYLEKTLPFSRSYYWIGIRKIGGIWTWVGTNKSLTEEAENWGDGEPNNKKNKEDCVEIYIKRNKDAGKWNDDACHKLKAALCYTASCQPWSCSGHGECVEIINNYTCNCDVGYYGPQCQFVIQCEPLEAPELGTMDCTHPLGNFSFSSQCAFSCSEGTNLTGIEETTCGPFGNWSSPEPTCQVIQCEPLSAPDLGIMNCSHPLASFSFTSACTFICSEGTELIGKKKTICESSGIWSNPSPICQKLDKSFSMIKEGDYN", "assay": "Soluble gp120 and CD62L ELISA in presence of inhibitors", "settings": "10 mM EDTA or 10 mg/ml carbohydrates", "experimental": "Fifty ng of gp120 proteins were immobilized in individual wells of a 96-well plate for 1 hour at room temperature in coating buffer (10 mM Tris [pH7.5] and 2 mM CaCl2), blocked for 1 hour using blocking buffer (10 mM Tris [pH7.5], 0.1% Tween20), and washed three times with the same buffer. […] The plate was washed five times and readout was colorimetric using a TMB substrate and analyzed on a SPECTRAMAX™ Plus 384 spectrophotometer (Molecular Devices)."}, "[4]": {"target": "T2, soluble human L-selectin (sCD62L) (Homo sapiens, UniProt P14151)", "assay": "SPR (Biacore 3000), gp120 injected over immobilized CD62L"}, "[5]": {"target": "B1", "assay": "SPR (Biacore 3000), CD62L ligand against CD62L"}, "[6]": {"target": "T2, soluble human L-selectin (sCD62L)", "assay_type": "binding", "settings": "recombinant gp120 injected over immobilized CD62L, SPR; read-out: KD (nM), Solution KD for CD62L"}, "[7]": {"target": "T3, gp120 of strain PBJ (SIV) (SIV, UniProt P19503 23-535)", "T3 sequence": "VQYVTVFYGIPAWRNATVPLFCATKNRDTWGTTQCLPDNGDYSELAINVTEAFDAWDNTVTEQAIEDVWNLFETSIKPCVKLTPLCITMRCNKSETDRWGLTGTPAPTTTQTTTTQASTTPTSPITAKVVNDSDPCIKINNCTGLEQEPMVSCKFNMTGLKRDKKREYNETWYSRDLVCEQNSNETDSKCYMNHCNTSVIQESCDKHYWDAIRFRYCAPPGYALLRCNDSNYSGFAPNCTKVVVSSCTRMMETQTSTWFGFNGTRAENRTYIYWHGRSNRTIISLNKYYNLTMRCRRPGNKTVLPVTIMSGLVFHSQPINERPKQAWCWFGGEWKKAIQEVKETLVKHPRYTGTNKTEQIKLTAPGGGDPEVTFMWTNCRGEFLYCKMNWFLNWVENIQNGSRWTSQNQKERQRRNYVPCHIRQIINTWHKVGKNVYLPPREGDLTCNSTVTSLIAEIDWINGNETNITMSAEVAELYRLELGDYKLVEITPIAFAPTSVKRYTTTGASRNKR", "assay": "SPR (Biacore 3000), gp120 injected over immobilized CD62L"}},
  "note": "“Also recorded” adds a separate entry of the source. Like-named read-outs stand apart in the source and are kept apart here.",
  "data": [
    {"molecule": "CNC(=O)[C@H](Cc1ccccc1)NC(=O)[C@H](CC(C)C)[C@H](CSc1cccs1)C(=O)NO", "note": "[BB-94, Batimastat]", "values": [
      {"measurement": "reduction of HIV-1BaL infection of CD4+ T cells", "setting": "HIV-1BaL [1]; day 6, intracellular p24", "result": 60, "unit": "%"},
      {"measurement": "reduction of HIV-1BaL infection of CD4+ T cells", "setting": "HIV-1BaL [1]; day 11, intracellular p24", "result": 80, "unit": "%"},
      {"measurement": "reduction in the viral infection of TZM-BL cells compared to the control", "setting": "HIV-1BaL [2]", "result": 80, "unit": "%"},
      {"measurement": "inhibition of HIV-1 viral release among infected individuals", "setting": "HIV-1 viral release; paired DMSO and BB-94 treatment, viremic and aviremic individuals", "result": "30%-90%"}
    ]},
    {"molecule": "O=P(O)(O)C(Cl)(Cl)P(=O)(O)O", "note": "[DMDP, dichloromethylenediphosphonic acid]", "values": [
      {"measurement": "HIV-1BaL infection", "setting": "HIV-1BaL [1]; 100 μM concentration, intracellular p24", "result": "showed no effect"},
      {"measurement": "CD62L shedding", "setting": "CD62L shedding", "result": "showed no effect"},
      {"measurement": "activation-induced viral release, virion-associated HIV-1 RNA in supernatant", "setting": "HIV-1 viral release; anti-CD3 stimulated CD4+ T cells from viremic and aviremic individuals, 48 hours", "result": "neither DMSO nor DMDP affected the viral release"}
    ]},
    {"molecule": "O=C(O)CN(CCN(CC(=O)O)CC(=O)O)CC(=O)O", "note": "[EDTA]", "values": [
      {"measurement": "HIV-1BaL infection, intracellular viral capsid p24", "setting": "HIV-1BaL [1]; 5 mM EDTA", "result": "significantly reduced"}
    ]},
    {"molecule": "CC(=O)N[C@H]1C(O)O[C@H](CO)[C@@H](O)[C@@H]1O", "note": "(stereo partly drawn) [N-acetylglucosamine, N-acetyl-D-glucosamine]", "values": [
      {"measurement": "gp120-CD62L binding in the presence of inhibitor", "setting": "[3]", "result": "not"}
    ]},
    {"molecule": "OC[C@H]1O[C@@H](O[C@H]2[C@H](O)[C@@H](O)C(O)O[C@@H]2CO)[C@H](O)[C@@H](O)[C@H]1O", "note": "(some centres unmarked) [lactose]", "values": [
      {"measurement": "gp120-CD62L binding in the presence of inhibitor", "setting": "[3]", "result": "not"}
    ]},
    {"molecule": "Heparin", "values": [
      {"measurement": "gp120-CD62L binding in the presence of inhibitor", "setting": "[3]", "result": "competed with gp120 for receptor binding"},
      {"measurement": "gp120-CD62L binding in the presence of inhibitor", "setting": "[3]; listed as heparin", "result": "inhibited gp120 binding"}
    ]},
    {"molecule": "fucoidan", "values": [
      {"measurement": "gp120-CD62L binding in the presence of inhibitor", "setting": "[3]", "result": "inhibited gp120 binding; also recorded: competed with gp120 for receptor binding"}
    ]},
    {"molecule": "gp120 of strain 11530 (Clade A) (ligand)", "values": [
      {"measurement": "Kd", "setting": "[4]", "result": 35, "unit": "nM"}
    ]},
    {"molecule": "gp120 of strain CAP 88 (Clade C) (ligand)", "values": [
      {"measurement": "Kd", "setting": "[4]", "result": 71, "unit": "nM"}
    ]},
    {"molecule": "gp120 of strain R66M (Clade A/C) (ligand)", "values": [
      {"measurement": "Kd", "setting": "[4]", "result": 18, "unit": "nM"}
    ]},
    {"molecule": "gp120 of strain RV254 (Clade E) (ligand)", "values": [
      {"measurement": "Kd", "setting": "[4]", "result": 15, "unit": "nM"}
    ]},
    {"molecule": "gp120 of strain Z185 (Clade C) (ligand)", "values": [
      {"measurement": "Kd", "setting": "[4]", "result": 58, "unit": "nM"}
    ]},
    {"molecule": "recombinant gp120 from strain 20SF of Clade C (ligand)", "values": [
      {"measurement": "Kd", "setting": "[4]", "result": 53, "unit": "nM"}
    ]},
    {"molecule": "sialyl-Lewis X", "values": [
      {"measurement": "gp120-CD62L binding in the presence of inhibitor", "setting": "[3]", "result": "competed with gp120 for receptor binding"},
      {"measurement": "gp120-CD62L binding in the presence of inhibitor", "setting": "[3]; listed as Sialyl-Lewis", "result": "inhibited gp120 binding"}
    ]},
    {"molecule": "sialyllactose", "values": [
      {"measurement": "gp120-CD62L binding in the presence of inhibitor", "setting": "[3]", "result": "inhibited"}
    ]},
    {"molecule": "soluble mucin (PSM-II) (ligand)", "values": [
      {"measurement": "Kd", "setting": "[5]", "result": 3.8, "unit": "µM"}
    ]},
    {"molecule": "PBJ: recombinant gp120, strain PBJ, SIV (protein) VQYVTVFYGIPAWRNATVPLFCATKNRDTWGTTQCLPDNGDYSELAINVTEAFDAWDNTVTEQAIEDVWNLFETSIKPCVKLTPLCITMRCNKSETDRWGLTGTPAPTTTQTTTTQASTTPTSPITAKVVNDSDPCIKINNCTGLEQEPMVSCKFNMTGLKRDKKREYNETWYSRDLVCEQNSNETDSKCYMNHCNTSVIQESCDKHYWDAIRFRYCAPPGYALLRCNDSNYSGFAPNCTKVVVSSCTRMMETQTSTWFGFNGTRAENRTYIYWHGRSNRTIISLNKYYNLTMRCRRPGNKTVLPVTIMSGLVFHSQPINERPKQAWCWFGGEWKKAIQEVKETLVKHPRYTGTNKTEQIKLTAPGGGDPEVTFMWTNCRGEFLYCKMNWFLNWVENIQNGSRWTSQNQKERQRRNYVPCHIRQIINTWHKVGKNVYLPPREGDLTCNSTVTSLIAEIDWINGNETNITMSAEVAELYRLELGDYKLVEITPIAFAPTSVKRYTTTGASRNKR", "values": [
      {"measurement": "Kd", "setting": "[6]", "result": "19 ± 2", "unit": "nM"}
    ]},
    {"molecule": "recombinant PSGL-1 (ligand, UniProt Q14242 42-295, looked up, also called P-selectin glycoprotein ligand-1) QATEYEYLDYDFLPETEPPEMLRNSTDTTPLTGPGTPESTTVEPAARRSTGLDAGGAVTELTTELANMGNLSTDSAAMEIQTTQPAATEAQTTQPVPTEAQTTPLAATEAQTTRLTATEAQTTPLAATEAQTTPPAATEAQTTQPTGLEAQTTAPAAMEAQTTAPAAMEAQTTPPAAMEAQTTQTTAMEAQTTAPEATEAQTTQPTATEAQTTPLAAMEALSTEPSATEALSMEPTTKRGLFIPFSVSSVTHKG", "values": [
      {"measurement": "Kd", "setting": "[5]", "result": 50, "unit": "µM"}
    ]},
    {"molecule": "B1", "values": [
      {"measurement": "Kd", "setting": "[7]", "result": 19, "unit": "nM"}
    ]}
  ]
}
